Data set [1] has as its system Acinetobacter baumannii. In words: Antimicrobial activity against multi-drug resistant Acinetobacter baumannii assessed as reduction in bacterial growth by broth dilution method. In kind it is functional. (Dilution methods test growth across graded concentrations, often in twofold steps.)
Data set [2] relates to Klebsiella pneumoniae. In words: Antimicrobial activity against multi-drug resistant Klebsiella pneumoniae assessed as reduction in bacterial growth by broth dilution method. It counts as functional.
Data set [3] deals with BEAS-2B. The data set can be described thus: Cytotoxicity against human BEAS-2B cells at 2 to 256 uM measured after 24 hrs by CCK-8 method. In kind it is toxicity, cell-based. The following applies: dose 2-256 µM. (Formazan colour is commonly taken as a measure of viable cells.)
The subject of data set [4] is L02. In words: Cytotoxicity against human LO2 cells at 2 to 256 uM measured after 24 hrs by CCK-8 method. In kind it is toxicity, cell-based. The following applies: l02, 24 h, dose 2-256 µM.
The subject of data set [5] is Staphylococcus aureus. The data set can be described thus: Antimicrobial activity against multi-drug resistant Staphylococcus aureus assessed as reduction in bacterial growth by broth dilution method. In kind it is functional.
Data set [6] concerns Escherichia coli. The data set can be described thus: Antimicrobial activity against Escherichia coli ATCC 25922 assessed as reduction in bacterial growth by broth dilution method. In kind it is functional.
Data set [7] deals with Staphylococcus epidermidis. In words: Antimicrobial activity against multi-drug resistant Staphylococcus epidermidis assessed as reduction in bacterial growth by broth dilution method. It counts as functional.
Data set [8] has as its system Escherichia coli. The data set can be described thus: Antimicrobial activity against multi-drug resistant Escherichia coli assessed as reduction in bacterial growth by broth dilution method. It counts as functional.
The test system of data set [9] is Enterococcus faecalis. The data set can be described thus: Antimicrobial activity against multi-drug resistant Enterococcus faecalis assessed as reduction in bacterial growth by broth dilution method. It counts as functional.
The subject of data set [10] is Staphylococcus aureus. The data set can be described thus: Antimicrobial activity against Staphylococcus aureus ATCC 25923 assessed as reduction in bacterial growth by broth dilution method. It counts as functional.
A short description of data set [11]: Hemolytic activity in human Red blood cell assessed as hemolysis incubated for 1 hrs by microplate reader based analysis. In kind it is toxicity. The following applies: erythrocyte.
The test system of data set [12] is HEK-293T. The data set can be described thus: Cytotoxicity against HEK293T cells at 2 to 256 uM measured after 24 hrs by CCK-8 method. It counts as toxicity, cell-based. The settings on record: human, dose 2-256 µM.
The subject of data set [13] is Escherichia coli. The data set can be described thus: Drug resistance, ratio of MIC for Escherichia coli ATCC 25922 after 15 passages exposure to MIC for Escherichia coli ATCC 25922 after first exposure. In kind it is functional.
Data set [14] has as its system Staphylococcus aureus. The data set can be described thus: Drug resistance, ratio of MIC for Staphylococcus aureus ATCC 25923 after 15 passages exposure to MIC for Staphylococcus aureus ATCC 25923 after first exposure. In kind it is functional.
Data set [15] has as its system Cell membrane. The data set can be described thus: Induction of cytoplasmic membrane depolarization in multi-drug resistant Staphylococcus aureus at 1 to 4 times MIC measured within 1 min by DiSC3-5 fluorescent dye based analysis.
Data set [16] relates to Cell membrane. In words: Induction of cytoplasmic membrane depolarization in multi-drug resistant Escherichia coli at 1 to 4 times MIC measured within 1 min by DiSC3-5 fluorescent dye based analysis.
Data set [17] deals with Escherichia coli. In words: Bactericidal activity against multi-drug resistant Escherichia coli at 1 times MIC preincubated with LPS for 1 hrs followed by bacterial addition and measured after 18 hrs by microplate reader based analysis. In kind it is functional, organism-based. The following applies: time 19.0 hrs.
Data set [18] concerns Staphylococcus aureus. The data set can be described thus: Antibacterial activity against Staphylococcus aureus ATCC 25923 at sub-inhibitory concentration measured after 7 passages for 18 hrs. In kind it is functional, organism-based.
The subject of data set [19] is Escherichia coli. The data set can be described thus: Antibacterial activity against Escherichia coli […] at sub-inhibitory concentration measured after 7 passages for 18 hrs. It counts as functional, organism-based.
Data set [20] relates to Cell membrane. In words: Induction of outer membrane permeabilization in multi-drug resistant Escherichia coli assessed as NPN uptake at 1 to 4 times MIC measured within 1 min by fluorescence based analysis. It counts as subcellular.

Consider eight compounds from ChEMBL document CHEMBL6134890, “Terminally Symmetric β-Turn Peptides for Multidrug-Resistant Bacterial Infections” (J Med Chem, 2025).

Values after ≈ are worked out from the molar mass of the structure shown. Active and inactive are the calls of the source. Bridge positions count the residues as written; N and C are the ends. Square brackets hold non-standard residues; d marks the D form. Peptide text beside a SMILES is read from it. * marks the point of attachment. X1 = CC[C@H](C)CCCCC(=O)*; dDab = NCC[C@@H](N)C(=O)O; Dab = NCC[C@H](N)C(=O)O

For orientation: MIC means the smallest concentration in the dilution series that meets the test's criterion for growth inhibition.

Regarding `CC(C)[C@H](NC(=O)[C@H](CCCCN)NC(=O)[C@@H](NC(=O)[C@H](CCCCN)NC(=O)[C@H](Cc1ccccc1)NC(=O)[C@@H]1CCCN1C(=O)[C@H](Cc1c[nH]c2ccccc12)NC(=O)[C@H](Cc1c[nH]c2ccccc12)NC(=O)[C@H](Cc1c[nH]c2ccccc12)NC(=O)[C@@H]1CCCN1C(=O)[C@H](Cc1ccccc1)NC(=O)[C@H](CCCCN)NC(=O)[C@@H](NC(=O)[C@H](CCCCN)NC(=O)[C@@H](NC(=O)[C@@H](N)CCCCN)C(C)C)C(C)C)C(C)C)C(=O)N[C@@H](CCCCN)C(N)=O` (H-KVKVKFPWWWPFKVKVK-NH2), the MIC in data set [1] worked out at 8 µM (≈ 17.8 µg/mL); in data set [2], 16 µM (≈ 35.7 µg/mL); in data set [5] it was 8 µM (≈ 17.8 µg/mL); in data set [6], 4 µM (≈ 8.92 µg/mL); in data set [7], 4 µM (≈ 8.92 µg/mL); in data set [8] it was 4 µM (≈ 8.92 µg/mL). In addition, the figures for the MIC in data set [9] and in [10] were 4 µM (≈ 8.92 µg/mL) and 8 µM (≈ 17.8 µg/mL), respectively. For the same compound, the Activity result in data set [3], in data set [4] and in [12] was “Toxic” in each case. In addition, in data set [11], the HC10 came out at 243.97 µM.

For `NCCCC[C@H](NC(=O)[C@H](Cc1ccccc1)NC(=O)[C@H](CCCCN)NC(=O)[C@H](Cc1ccccc1)NC(=O)[C@H](CCCCN)NC(=O)[C@@H]1CCCN1C(=O)[C@H](Cc1c[nH]c2ccccc12)NC(=O)[C@H](Cc1c[nH]c2ccccc12)NC(=O)[C@H](Cc1c[nH]c2ccccc12)NC(=O)[C@@H]1CCCN1C(=O)[C@H](CCCCN)NC(=O)[C@H](Cc1ccccc1)NC(=O)[C@H](CCCCN)NC(=O)[C@H](Cc1ccccc1)NC(=O)[C@@H](N)CCCCN)C(N)=O` (H-KFKFKPWWWPKFKFK-NH2), the minimal inhibitory concentration (MIC) in [1] turned out to be 4 µM (≈ 8.51 µg/mL); in data set [2], 4 µM (≈ 8.51 µg/mL); in data set [5] it was 4 µM (≈ 8.51 µg/mL); in [6], 2 µM (≈ 4.26 µg/mL); in data set [7] it was 4 µM (≈ 8.51 µg/mL); in data set [8] it was 4 µM (≈ 8.51 µg/mL). Moreover, the MIC in [9] was determined as 2 µM (≈ 4.26 µg/mL); in [10], 4 µM (≈ 8.51 µg/mL). For the same compound, the Activity result in [3], in data set [4] and in data set [12] was “Toxic” in each case. In [11], the HC10 was over 256 µM.

`CC(C)CCCCC(=O)N[C@@H](CCN)C(=O)N[C@H](C(=O)N[C@@H](CCN)C(=O)N[C@H]1CCNC(=O)[C@H]([C@@H](C)O)NC(=O)[C@H](CCN)NC(=O)[C@H](CCN)NC(=O)[C@H](CC(C)C)NC(=O)[C@@H](Cc2ccccc2)NC(=O)[C@H](CCN)NC1=O)[C@@H](C)O.CC[C@H](C)CCCCC(=O)N[C@@H](CCN)C(=O)N[C@H](C(=O)N[C@@H](CCN)C(=O)N[C@H]1CCNC(=O)[C@H]([C@@H](C)O)NC(=O)[C@H](CCN)NC(=O)[C@H](CCN)NC(=O)[C@H](CC(C)C)NC(=O)[C@@H](Cc2ccccc2)NC(=O)[C@H](CCN)NC1=O)[C@@H](C)O` (X1-[Dab]T[Dab][Dab][Dab][dF]L[Dab][Dab]T; lactam 4-C): the Activity entry in data set [3], in data set [4] and in data set [12] was “Non-toxic” in each case. In [11], the HC10 was over 256 µM.

As to `CC1(C)S[C@@H]2[C@H](NC(=O)[C@H](N)c3ccc(O)cc3)C(=O)N2[C@H]1C(=O)O` [AMOXICILLIN], the MIC is 128 µM (≈ 46.8 µg/mL) in data set [1]; over 256 µM in data set [2]; 64 µM (≈ 23.4 µg/mL) in [5]; 4 µM (≈ 1.46 µg/mL) in data set [6]; 128 µM (≈ 46.8 µg/mL) in data set [7]; over 256 µM in [8]. The MIC in data set [9] was found to be 64 µM (≈ 23.4 µg/mL); in data set [10], 0.25 µM (≈ 0.0914 µg/mL). Moreover, the “fold change (FC)” value was 8 in [13] and 64 in [14].

Take `CO[C@H]1/C=C/O[C@@]2(C)Oc3c(C)c(O)c4c(O)c(c(/C=N/N5CCN(C)CC5)c(O)c4c3C2=O)NC(=O)/C(C)=C\C=C\[C@H](C)[C@H](O)[C@@H](C)[C@@H](O)[C@@H](C)[C@H](OC(C)=O)[C@@H]1C` [RIFAMPIN]: the MIC in data set [1] was 16 µM (≈ 13.2 µg/mL); in data set [2], 16 µM (≈ 13.2 µg/mL); in [5] it was 0.5 µM (≈ 0.411 µg/mL); in data set [6], 8 µM (≈ 6.58 µg/mL); in [7] it was 2 µM (≈ 1.65 µg/mL); in data set [8], 64 µM (≈ 52.7 µg/mL). The figures for the MIC in [9] and in data set [10] were 4 µM (≈ 3.29 µg/mL) and 0.5 µM (≈ 0.411 µg/mL), respectively. Besides, the “fold change (FC)” value in data set [13] came out at 8; in data set [14], 64.

For `CC(C)CCCCC(=O)N[C@@H](CCN)C(=O)N[C@H](C(=O)N[C@@H](CCN)C(=O)N[C@H]1CCNC(=O)[C@H]([C@@H](C)O)NC(=O)[C@H](CCN)NC(=O)[C@H](CCN)NC(=O)[C@H](CC(C)C)NC(=O)[C@@H](Cc2ccccc2)NC(=O)[C@@H](CCN)NC1=O)[C@@H](C)O.CC[C@H](C)CCCCC(=O)N[C@@H](CCN)C(=O)N[C@H](C(=O)N[C@@H](CCN)C(=O)N[C@H]1CCNC(=O)[C@H]([C@@H](C)O)NC(=O)[C@H](CCN)NC(=O)[C@H](CCN)NC(=O)[C@H](CC(C)C)NC(=O)[C@@H](Cc2ccccc2)NC(=O)[C@@H](CCN)NC1=O)[C@@H](C)O` (X1-[Dab]T[Dab][Dab][dDab][dF]L[Dab][Dab]T; lactam 4-C), the outcome in data set [15], in [17], in data set [18] and in data set [19] was inactive. In addition, the result in [16] and in data set [20] was Active.

`NCCCC[C@H](NC(=O)[C@H](Cc1c[nH]c2ccccc12)NC(=O)[C@H](CCCCN)NC(=O)[C@H](Cc1c[nH]c2ccccc12)NC(=O)[C@@H]1CCCN1C(=O)[C@H](Cc1c[nH]c2ccccc12)NC(=O)[C@H](Cc1c[nH]c2ccccc12)NC(=O)[C@H](Cc1c[nH]c2ccccc12)NC(=O)[C@@H]1CCCN1C(=O)[C@H](Cc1c[nH]c2ccccc12)NC(=O)[C@H](CCCCN)NC(=O)[C@H](Cc1c[nH]c2ccccc12)NC(=O)[C@@H](N)CCCCN)C(N)=O` (H-KWKWPWWWPWKWK-NH2): the MIC in [1] stood at 4 µM (≈ 8.11 µg/mL); in [2], 16 µM (≈ 32.4 µg/mL); in data set [5] it was 2 µM (≈ 4.05 µg/mL); in data set [6] it was 8 µM (≈ 16.2 µg/mL); in data set [7], 2 µM (≈ 4.05 µg/mL); in data set [8], 4 µM (≈ 8.11 µg/mL). Also, the MIC in [9] and in data set [10] was 2 µM (≈ 4.05 µg/mL) in each case. Further, the HC10 in data set [11] came to 10.37 µM.

With `CC[C@H](C)[C@H](N)C(=O)N[C@@H](CCCCN)C(=O)N[C@H](C(=O)N[C@@H](CCCCN)C(=O)N[C@H](C(=O)N[C@@H](CCCCN)C(=O)N1CCC[C@H]1C(=O)N[C@@H](Cc1c[nH]c2ccccc12)C(=O)N[C@@H](Cc1c[nH]c2ccccc12)C(=O)N[C@@H](Cc1c[nH]c2ccccc12)C(=O)N1CCC[C@H]1C(=O)N[C@@H](CCCCN)C(=O)N[C@H](C(=O)N[C@@H](CCCCN)C(=O)N[C@H](C(=O)N[C@@H](CCCCN)C(=O)N[C@H](C(N)=O)[C@@H](C)CC)[C@@H](C)CC)[C@@H](C)CC)[C@@H](C)CC)[C@@H](C)CC` (H-IKIKIKPWWWPKIKIKI-NH2), the MIC came to 64 µM (≈ 142 µg/mL) in [1]; 64 µM (≈ 142 µg/mL) in data set [2]; 8 µM (≈ 17.7 µg/mL) in data set [5]; 64 µM (≈ 142 µg/mL) in [6]; 2 µM (≈ 4.44 µg/mL) in [7]; 64 µM (≈ 142 µg/mL) in [8]. Also, the MIC in data set [9] came to 2 µM (≈ 4.44 µg/mL); in data set [10] it was 4 µM (≈ 8.87 µg/mL). Moreover, the HC10 in [11] was found to be 116.64 µM.
